From PubChem BioAssay (NCI)
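48-hour exposure; five concentrations; linearly interpolated endpoints. TGI marks complete inhibition of growth.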

Experiments:
Assay in all cases: NCI-60 cell line screen, 48 h
HS 578T breast = test system: HS 578T breast
HT29 colon = test system: HT29 colon
CAKI-1 renal = test system: CAKI-1 renal
T-47D breast = test system: T-47D breast
NCI-H460 lung = test system: NCI-H460 lung
RPMI-8226 leukemia = test system: RPMI-8226 leukemia
COLO 205 colon = test system: COLO 205 colon
EKVX NSCLC = test system: EKVX NSCLC
OVCAR-8 ovarian = test system: OVCAR-8 ovarian
786-0 renal = test system: 786-0 renal
MCF7 breast = test system: MCF7 breast
CCRF-CEM leukemia = test system: CCRF-CEM leukemia
SK-MEL-28 melanoma = test system: SK-MEL-28 melanoma
UACC-62 melanoma = test system: UACC-62 melanoma
NCI-H23 lung = test system: NCI-H23 lung
HCT-116 colon = test system: HCT-116 colon
U251 CNS = test system: U251 CNS
KM12 colon = test system: KM12 colon
RXF 393 renal = test system: RXF 393 renal
HCC-2998 colon = test system: HCC-2998 colon
OVCAR-3 ovarian = test system: OVCAR-3 ovarian
HCT-15 colon = test system: HCT-15 colon
MALME-3M melanoma = test system: MALME-3M melanoma
LOX IMVI melanoma = test system: LOX IMVI melanoma
HL-60(TB) leukemia = test system: HL-60(TB) leukemia
OVCAR-5 ovarian = test system: OVCAR-5 ovarian
SK-OV-3 ovarian = test system: SK-OV-3 ovarian
NCI-H522 lung = test system: NCI-H522 lung
SF-295 CNS = test system: SF-295 CNS
MOLT-4 leukemia = test system: MOLT-4 leukemia
PC-3 prostate = test system: PC-3 prostate
SNB-75 CNS = test system: SNB-75 CNS
BT-549 breast = test system: BT-549 breast
HOP-92 NSCLC = test system: HOP-92 NSCLC
NCI-H226 lung = test system: NCI-H226 lung
M14 melanoma = test system: M14 melanoma
SK-MEL-5 melanoma = test system: SK-MEL-5 melanoma
SW-620 colon = test system: SW-620 colon
MDA-MB-435 = test system: MDA-MB-435
SK-MEL-2 melanoma = test system: SK-MEL-2 melanoma
MDA-MB-231 breast = test system: MDA-MB-231 breast
A549 NSCLC = test system: A549 NSCLC
UO-31 renal = test system: UO-31 renal
IGROV1 ovarian = test system: IGROV1 ovarian
NCI/ADR-RES ovarian = test system: NCI/ADR-RES ovarian
UACC-257 melanoma = test system: UACC-257 melanoma
K-562 leukemia = test system: K-562 leukemia
MDA-N = test system: MDA-N
SF-539 CNS = test system: SF-539 CNS
ACHN renal = test system: ACHN renal
SNB-19 CNS = test system: SNB-19 CNS
HOP-62 NSCLC = test system: HOP-62 NSCLC
DU-145 prostate = test system: DU-145 prostate
SN12C renal = test system: SN12C renal
SF-268 CNS = test system: SF-268 CNS
TK-10 renal = test system: TK-10 renal
SR leukemia = test system: SR leukemia
A498 renal = test system: A498 renal
OVCAR-4 ovarian = test system: OVCAR-4 ovarian

Work on `CCO/C=N/C1=C(C#N)C(c2ccc(OC)c(OC)c2)c2c(-c3ccccc3)nn(-c3ccccc3)c2O1` (configuration not stated) yielded a TGI (HS 578T breast) of over 100 µM, a TGI (HT29 colon) of 52.5 µM and a TGI (CAKI-1 renal) of 33.3 µM. The TGI (T-47D breast) was 60.5 µM, the TGI (NCI-H460 lung) was over 100 µM and the TGI (RPMI-8226 leukemia) was over 100 µM. For the same compound, the TGI (COLO 205 colon) was 27.1 µM, the TGI (EKVX NSCLC) was 33.1 µM and the TGI (OVCAR-8 ovarian) was 47.6 µM. The TGI (786-0 renal) was 29.2 µM, the TGI (MCF7 breast) was 53.1 µM and the TGI (CCRF-CEM leukemia) was 6.26 µM. It also gave a TGI (SK-MEL-28 melanoma) of 29.4 µM, a TGI (UACC-62 melanoma) of 27.6 µM and a TGI (NCI-H23 lung) of 31.1 µM. For the same compound, the TGI (HCT-116 colon) was 28.3 µM, the TGI (U251 CNS) was 26.8 µM and the TGI (KM12 colon) was 22.1 µM. The TGI (RXF 393 renal) was 29.8 µM, the TGI (HCC-2998 colon) was over 100 µM and the TGI (OVCAR-3 ovarian) was 77.1 µM. The TGI (HCT-15 colon) was 18 µM, the TGI (MALME-3M melanoma) was 51.2 µM and the TGI (LOX IMVI melanoma) was 31 µM. It also gave a TGI (HL-60(TB) leukemia) of 8.85 µM, a TGI (OVCAR-5 ovarian) of 52.6 µM and a TGI (SK-OV-3 ovarian) of 60.2 µM. For the same compound, the TGI (NCI-H522 lung) was 38.2 µM, the TGI (SF-295 CNS) was 30.7 µM and the TGI (MOLT-4 leukemia) was 38.4 µM. The TGI (PC-3 prostate) was over 100 µM, the TGI (SNB-75 CNS) was 34.2 µM and the TGI (BT-549 breast) was 23.8 µM. The TGI (HOP-92 NSCLC) was 30 µM, the TGI (NCI-H226 lung) was 32.9 µM and the TGI (M14 melanoma) was 60 µM. For the same compound, the TGI (SK-MEL-5 melanoma) was 24.4 µM, the TGI (SW-620 colon) was 29.2 µM and the TGI (MDA-MB-435) was 33.1 µM. For the same compound, the TGI (SK-MEL-2 melanoma) was 43.8 µM, the TGI (MDA-MB-231 breast) was 40.4 µM and the TGI (A549 NSCLC) was 40.5 µM. For the same compound, the TGI (UO-31 renal) was 38.5 µM, the TGI (IGROV1 ovarian) was 14.8 µM and the TGI (NCI/ADR-RES ovarian) was 48.3 µM. The TGI (UACC-257 melanoma) was over 100 µM, the TGI (K-562 leukemia) was 27 µM and the TGI (MDA-N) was 35.5 µM. The TGI (SF-539 CNS) was 33.7 µM, the TGI (ACHN renal) was 28.3 µM and the TGI (SNB-19 CNS) was 29.6 µM. It also gave a TGI (HOP-62 NSCLC) of over 100 µM, a TGI (DU-145 prostate) of 28.7 µM and a TGI (SN12C renal) of 38.9 µM. The TGI (SF-268 CNS) was 61.7 µM.

For `COc1cc(C2c3cc4c(c(O)c3C(=O)C3CCC(=O)N32)OCO4)cc(OC)c1OC` (configuration not stated), the TGI (HS 578T breast) was over 100 µM, the TGI (HT29 colon) was over 100 µM and the TGI (CAKI-1 renal) was over 100 µM. The TGI (TK-10 renal) was over 100 µM, the TGI (T-47D breast) was over 100 µM and the TGI (NCI-H460 lung) was over 100 µM. The TGI (RPMI-8226 leukemia) was over 100 µM, the TGI (COLO 205 colon) was over 100 µM and the TGI (EKVX NSCLC) was over 100 µM. It also gave a TGI (OVCAR-8 ovarian) of over 100 µM, a TGI (786-0 renal) of over 100 µM and a TGI (MCF7 breast) of over 100 µM. For the same compound, the TGI (CCRF-CEM leukemia) was over 100 µM, the TGI (SK-MEL-28 melanoma) was over 100 µM and the TGI (UACC-62 melanoma) was over 100 µM. The TGI (NCI-H23 lung) was over 100 µM, the TGI (HCT-116 colon) was over 100 µM and the TGI (U251 CNS) was over 100 µM. For the same compound, the TGI (KM12 colon) was over 100 µM, the TGI (HCC-2998 colon) was over 100 µM and the TGI (OVCAR-3 ovarian) was over 100 µM. The TGI (HCT-15 colon) was over 100 µM, the TGI (SR leukemia) was over 100 µM and the TGI (MALME-3M melanoma) was over 100 µM. For the same compound, the TGI (LOX IMVI melanoma) was over 100 µM, the TGI (HL-60(TB) leukemia) was over 100 µM and the TGI (OVCAR-5 ovarian) was over 100 µM. The TGI (SK-OV-3 ovarian) was over 100 µM, the TGI (NCI-H522 lung) was 38.9 µM and the TGI (SF-295 CNS) was over 100 µM. For the same compound, the TGI (MOLT-4 leukemia) was over 100 µM, the TGI (A498 renal) was over 100 µM and the TGI (PC-3 prostate) was over 100 µM. For the same compound, the TGI (SNB-75 CNS) was over 100 µM, the TGI (BT-549 breast) was 92.5 µM and the TGI (HOP-92 NSCLC) was 86.7 µM. It also gave a TGI (NCI-H226 lung) of over 100 µM, a TGI (M14 melanoma) of over 100 µM and a TGI (SK-MEL-5 melanoma) of over 100 µM. For the same compound, the TGI (SW-620 colon) was over 100 µM, the TGI (MDA-MB-435) was 58.9 µM and the TGI (SK-MEL-2 melanoma) was over 100 µM. For the same compound, the TGI (A549 NSCLC) was over 100 µM, the TGI (UO-31 renal) was over 100 µM and the TGI (IGROV1 ovarian) was over 100 µM. It also gave a TGI (NCI/ADR-RES ovarian) of over 100 µM, a TGI (UACC-257 melanoma) of over 100 µM and a TGI (K-562 leukemia) of over 100 µM. The TGI (MDA-N) was 91.9 µM, the TGI (SF-539 CNS) was over 100 µM and the TGI (ACHN renal) was over 100 µM. For the same compound, the TGI (SNB-19 CNS) was over 100 µM, the TGI (HOP-62 NSCLC) was over 100 µM and the TGI (OVCAR-4 ovarian) was over 100 µM. The TGI (DU-145 prostate) was over 100 µM, the TGI (SN12C renal) was over 100 µM and the TGI (SF-268 CNS) was over 100 µM.
